Data from US4855489A, “2-acyloxypropylamino derivatives, processes for the preparation thereof, and pharmaceutical compositions containing them” (Goedecke Aktiengesellschaft, priority 1986, dated 1989).
Counter-ions that a name gives are not always drawn.

Assays:
protein kinase C (PKC) = tested on: T1, protein kinase C (PKC); test: Inhibition of PS/DO-mediated protein kinase C activity (32P incorporation into histone H-1); format: biochemical, chicken; conditions: activity with PKC activators and without test substance = 100%; for inhibition at 100 µM: test substance 10^-4 mol/l; for inhibition at 10 µM: test substance 10^-5 mol/l; for inhibition at 1 µM: test substance 10^-6 mol/l
T1 construct: this enzyme activity was enriched, starting from a chicken gizzard extract; from tissue; host or cells: chicken gizzard
Excerpt: 1. Inhibition of the enzyme protein kinase C. For the elucidation of the inhibiting influence of the compounds according to the present invention of general formula (I) on the calcium- and phospholipid-dependent protein kinase (PKC), this enzyme activity was enriched, starting from a chicken gizzard extract. The two-step procedure according to purification steps described in the literature (J. Biol. Chem., 260, 15718-15722/1985) utilized the property of the enzyme of binding in the presence of calcium to cell membranes and again dissolving off by calcium chelators (EGTA). In the first purification step, there took place the binding of the PKC to membranes of the chicken gizzard extract and, in the second step, to the so-called inside out vesicles of erythrocytes. After dissolving from the erythrocyte membranes and rebuffering, the PKC preparation was present in 10 mM HEPES, 1 mM DTT and 0.1% PEG 20,000 (pH 7.5) and, under these conditions, it could be stored for several months at -70° C. without loss of activity. The activity of the enzyme was determined via the incorporation of phosphorus 32-labelled phosphate into the protein histon H-1, which is phosphorylatable by PKC. The test thereby contained the following components: 50 mM HEPES (pH 7.5), 1 mM DTT, 5 mM magnesium chloride, about 10 μM free calcium ions, 200 μg/ml histone, 5 μg/ml phosphatidylserine, 1 μg/ml 1,2-diolein, 10 μuM ATP, in each case an appropriate amount of PKC preparation and optionally a test substance. The kinase activity measured under standard conditions in the presence of PKC activators (and without test substance) was, in each case, taken as being 100% and the inhibitory action of the compounds of general formula (I) referred thereto as a percentage.

[1] = tested on: gel-filtered human thrombocytes; test: Inhibition of OAG-induced platelet aggregation (aggregometer); format: cell-based; conditions: 3 min preincubation, OAG 5×10^-5 M, human platelets; for inhibition at 100 µM: test substance 10^-4 mol/l; for inhibition at 10 µM: test substance 10^-5 mol/l; for inhibition at 1 µM: test substance 10^-6 mol/l
Experimental: 2. Influence of the compound of Example 1 on platelet aggregation stimulated by oleoylacetylglycerol.
For carrying out the aggregation experiments, use was made of gel-filtered human thrombocytes. These were prepared in the following way: after centrifuging human blood for 15 minutes at 60 xg, the supernatant, i.e., the platelet-rich plasma, was used for the gel filtration. By means of the gel filtration through a column packed with Sepharose CL-2B, the platelets were transferred into a calcium-free, defined buffer medium (15 mM tris, 150 mM sodium chloride, 5.5 mM glucose, 0.2% bovine serum albumin; pH 7.4). Subsequently, the platelets were recalcified to a concentration of 7×10^-4 M calcium. The platelets were then incubated at 37° C. in an aggregometer and, after initiation of the aggregation by a stimulus, the decrease of the absorption was determined as a measure of the aggregation. As aggregation-initiating stimulus, there was used 1-oleoyl-2-acetylglycerol (OAG), an activator of the enzyme protein kinase C (J. Biol. Chem., 258, 6701-6704/1983) in a concentration of 5×10^-5 M. The aggregation achieved under these conditions was taken as being 100% control. The carrying out of the experiments on the influence of the compound of Example 1 on the OAG-stimulated aggregation took place in the following way: the platelets were first incubated for 3 minutes with the compound of Example 1 at the given concentration and subsequently the aggregation was initiated with OAG. The reduced extent of the aggregation was, in each case, calculated as a percentage of the 100% control. The results obtained are set out in Table 1 as well.

| inhibition at 100 µM (protein kinase C (PKC)) [%] | inhibition at 10 µM (protein kinase C (PKC)) [%] | inhibition at 1 µM (protein kinase C (PKC)) [%] | Structure (SMILES) | also measured |
| --- | --- | --- | --- | --- |
| 86 | 61 | 24 | CCCCCCCCCCCCCCCCCCOCC(CN(C)C)OC(C)=O (racemic) [Example 1, (±)-3-Dimethylamino-1-octadecyloxy-2-propyl acetate hydrochloride] | inhibition at 100 µM [1]: 100%; inhibition at 10 µM [1]: 48%; inhibition at 1 µM [1]: 2% |
|  | 27 |  | CCCCCCCCCCCCCCCCOCC(CN(C)C)OC(C)=O (racemic) [Example 1.f, (±)-3-dimethylamino-1-hexadecyloxy-2-propyl acetate hydrochloride] |  |
|  | 39 |  | CCCCCCCCCCCCCCCCCCCCOCC(CN(C)C)OC(C)=O (racemic) [Example 1.g, (±)-3-dimethylamino-1-eicosanyloxy-2-propyl acetate hydrochloride] | inhibition at 10 µM [1]: 53% |
|  | 61 | 18 | CCCCCCCCCCCCCCCCCCOCC(CN1CCNCC1C)OC(C)=O (stereo not shown) [Example 1.d, 1-(2-methyl)-piperazinyl-3-octadecyloxy-2-propyl acetate oxalate] | inhibition at 3 µM ([1]; test substance 3 × 10^-6 mol/l): 14%; inhibition at 10 µM [1]: 100%; inhibition at 1 µM [1]: 0% |
| 44 | 18 |  | CCCCCCCCCCCCCCCCCCOCC(CN)OC(C)=O (racemic) [Example 2, (±)-3-Amino-1-octadecyloxy-2-propyl acetate hydrochloride] |  |
| 25 |  |  | CCCCCCCCCCCCCCCCCCOCC(CN1CCCCC1)OC(C)=O (racemic) [Example 1.a, (±)-1-octadecyloxy-3-piperidino-2-propyl acetate hydrochloride] | inhibition at 100 µM [1]: 54% |
|  | 35 | 13 | CCCCCCCCCCCCCCCCCCOCC(CNC)OC(C)=O (racemic) [Example 2.a, (±)-3-methylamino-1-octadecyloxy-2-propyl acetate hydrochloride] |  |

The remaining lines, values behind:

| Structure (SMILES) | inhibition at 100 µM (protein kinase C (PKC)) [%] | inhibition at 10 µM (protein kinase C (PKC)) [%] | inhibition at 1 µM (protein kinase C (PKC)) [%] | also measured |
| --- | --- | --- | --- | --- |
| CCCOCC(CN(C)C)OC(=O)CC (racemic) [Example 1.c, (±)-3-dimethylamino-1-propoxy-2-propyl propionate oxalate] | 9 |  |  |  |
| CCCCCCCCCCCCCCCCCCOCC(CN(Cc1ccccc1)Cc1ccccc1)OC(C)=O (racemic) [Example 1.b, (±)-3-dibenzylamino-1-octadecyloxy-2-propyl acetate hydrochloride] |  | 22 |  |  |
| CCCCCCCC/C=C\CCCCCCCCOCC(CN(C)C)OC(C)=O (racemic) [Example 1.m, (±)-3-dimethylamino-1-(9-cis-octadecenyloxy)-2-propyl acetate hydrochloride] |  | 48 | 14 |  |
| CCCCCCCCCCCCCCC(C)OCC(CN(C)C)OC(C)=O (racemic) [Example 1.l, (±)-3-dimethylamino-1-(2-hexadecyloxy)-2-propyl acetate hydrochloride] |  | 31 |  |  |
| CCCCCCCCCCCCCCCCCCSCC(CN(C)C)OC(C)=O (racemic) [Example 3, (±)-3-Dimethylamino-1-octadecylthio-2-propyl acetate hydrochloride] | 70 | 22 |  |  |
| CCCCCCCCCCCCCCOCC(CN(C)C)OC(C)=O (racemic) [Example 1.e, (±)-3-dimethylamino-1-tetradecyloxy-2-propyl acetate hydrochloride] |  | 14 |  |  |
